Here are results for three molecules from paper PMC9862037, “Interactions of Mycotoxin Alternariol with Cytochrome P450 Enzymes and OATP Transporters” (Metabolites, 2022).

In series [1] the test system is CYP3A4. To be noted: read-out: IC50, CYP3A4-catalyzed midazolam hydroxylation, cited from earlier work.
Series [2] relates to CYP2C9. The conditions noted are these: read-out: IC50, CYP2C9-catalyzed tolbutamide hydroxylation; cited from earlier work.
Series [3] deals with CYP2D6. The conditions noted are these: read-out: IC50, CYP2D6-mediated dextromethorphan O-demethylation; cited from earlier work.
The target in series [4] is OATP1B1 (Homo sapiens, UniProt Q9Y6L6). Type of series: cell-based. More on the design: expressed in transfected cells. As to the method: The assays were performed as described recently. Cells were seeded on 96-well plates one day prior to the measurement. After washing three times with PBS at room temperature, cells were incubated for 15 min with 8-acetoxy-1,3,6-trisulfopyrene (Ace, 5 µM). After this “preloading” stage, the supernatant was removed, and the cells were incubated with the same amount of the probe (Counterflow assay) or without the probe in buffer pH 5.5 (Efflux assay) in the absence and the presence of AOH for further 20 min. Fixed concentrations of AOH were selected based on the IC50 values determined in the transport inhibition assay. […]. Cells were washed three times with ice-cold PBS, then NaOH solution (0.1 N, 200 µL/well) was added. After 20 min, fluorescence was measured with an Enspire plate reader in Ex/Em wavelengths 460/510 nm. Bottom reading was applied with two horizontal (X) and two vertical (Y) points, measurement height was 3 mm with 200 flashes. Fluorescence was compared to the preloaded control incubated with Ace alone, considered as 100%.

Where two headings read alike, the source gives them in different places.

A word on the IC50: it is the concentration at which inhibition is half-maximal.

Chain of OATP1B1 (Q9Y6L6 whole entry): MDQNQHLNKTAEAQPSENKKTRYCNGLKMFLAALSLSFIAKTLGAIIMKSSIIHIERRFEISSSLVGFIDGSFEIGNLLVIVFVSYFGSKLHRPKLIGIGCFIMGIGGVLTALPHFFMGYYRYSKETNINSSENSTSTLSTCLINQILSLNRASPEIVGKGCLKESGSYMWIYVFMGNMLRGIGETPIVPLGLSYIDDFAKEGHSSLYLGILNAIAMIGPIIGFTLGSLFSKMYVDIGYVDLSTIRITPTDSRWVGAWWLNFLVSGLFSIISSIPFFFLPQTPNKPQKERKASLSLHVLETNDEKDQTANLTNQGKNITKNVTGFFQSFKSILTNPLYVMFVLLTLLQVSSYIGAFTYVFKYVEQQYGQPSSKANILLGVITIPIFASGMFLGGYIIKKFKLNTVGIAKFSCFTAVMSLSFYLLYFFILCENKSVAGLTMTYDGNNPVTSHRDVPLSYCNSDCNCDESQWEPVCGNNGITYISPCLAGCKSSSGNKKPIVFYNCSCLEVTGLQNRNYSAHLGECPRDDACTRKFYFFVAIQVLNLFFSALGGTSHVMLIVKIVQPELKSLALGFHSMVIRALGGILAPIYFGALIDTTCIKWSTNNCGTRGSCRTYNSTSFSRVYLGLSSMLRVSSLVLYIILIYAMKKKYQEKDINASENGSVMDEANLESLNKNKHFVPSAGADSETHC

Regarding `CC(=O)OC[C@]12C[C@H](OC(=O)CC(C)C)C(C)=C[C@H]1O[C@@H]1[C@H](O)[C@@H](OC(C)=O)[C@@]2(C)[C@]12CO2` [T-2 toxin], the IC50 in series [1] is 27 µM.
As to `C[C@H]1CCCC(=O)CCC/C=C/c2cc(O)cc(O)c2C(=O)O1` [Zearalenone], the IC50 is 0.54 µM in series [2], 1.1 µM in series [1] (in vitro) and 55.4 µM in series [3].
`C=O` [formaldehyde]: in series [4], the “fluorescence signal in the CCF” value is recorded as “no change in the fluorescence”. Also, the “effect on efflux of the probe” value in series [4] (pH 5.5) is “blocks the efflux”.
